Literature values, collected in patent US6312728A, “Sustained release pharmaceutical preparation” (Cascade Development, Inc., priority 1999, dated 2001).
Like-named read-outs stand apart in the source and are kept apart here.

Key:
[1] = patients
[2] = intravenous administration
[3] = in vivo

SMILES | solubility in water | bioavailability following oral administration [1] | serious adverse effects [2] | solubility in water (listed as free-phenytoin) | half-life [3] [h]
O=C1NC(=O)C(c2ccccc2)(c2ccccc2)N1 [phenytoin sodium] | much more soluble | – | – | – | –
O=C1NC(=O)C(c2ccccc2)(c2ccccc2)N1 [phenytoin, 5,5-diphenyl-2,4-imidazolidinedione] | poor solubility in water | great variations in bioavailability | serious adverse effects, including cardiac arrhythmias and hypotensioni | practically insoluble in water | > 6
